Experimental data: BigSolDB 2.1

O=C1CCC(c2ccccc2)=NN1
solubility (mole fraction)
Settings	in DMSO	in ethanol	in ethyl acetate	in ethylene glycol	in isopropanol	in n-butanol	in propylene glycol	in sec-butanol	in transcutol	in water
293.2 K	0.637	0.00407	0.00878	0.0074	0.0031	0.00474	0.00654	0.00512	0.423	7.24e-07
298.2 K	0.647	0.00466	0.00994	0.00836	0.00378	0.0053	0.00732	0.00555	0.451	9.18e-07
303.2 K	0.658	0.00529	0.0111	0.00921	0.0046	0.00601	0.00846	0.00618	0.476	1.13e-06
308.2 K	0.668	0.00607	0.0128	0.0101	0.00555	0.0067	0.00951	0.00687	0.502	1.37e-06
313.2 K	0.677	0.00696	0.0145	0.0109	0.00651	0.00768	0.0103	0.00778	0.524	1.61e-06

Settings	solubility (mole fraction)
in PEG-400, 293.2 K	0.0585
in PEG-400, 298.2 K	0.0646
in PEG-400, 303.2 K	0.0709
in PEG-400, 308.2 K	0.078
in PEG-400, 313.2 K	0.0847
